Data: PubChem BioAssay (NCI)
Where “and” joins values, the source holds several entries; their conditions need not be identical. Equal entries are not always repeated.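 Cells were grown in 96-well plates and exposed to each compound for 48 hours at five concentrations; endpoints were interpolated linearly between bracketing concentrations, or set to the highest concentration if not reached. The concentration for 50% growth inhibition is given as GI50. TGI denotes the concentration required for complete inhibition of growth.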 Where a SMILES comes first, the peptide text is derived from it. [ ]: non-standard residue; d: D form. The star is where a group is joined. Phe(4-NO2) = N[CH](Cc1ccc([N+](=O)[O-])cc1)C(=O)O; Boc = CC(C)(C)OC(=O)*; OBn = c1ccc(CO*)cc1

Key:
Assay in all cases: inhibition of tumour cell growth, NCI panel, 48 h
[1] = tested on: SW-620 colon
[2] = tested on: EKVX NSCLC
[3] = tested on: OVCAR-4 ovarian
[4] = tested on: RXF 393 renal
[5] = tested on: K-562 leukemia
[6] = tested on: UACC-62 melanoma
[7] = tested on: ACHN renal
[8] = tested on: RPMI-8226 leukemia
[9] = tested on: MDA-MB-435
[10] = tested on: NCI/ADR-RES ovarian

| Compound | TGI [1] | TGI [2] [µM] | TGI [3] [µM] | TGI [4] [µM] | TGI [5] [µM] | TGI [6] [µM] | TGI [7] [µM] | TGI [8] [µM] | TGI [9] [µM] | TGI [10] [µM] | GI50 [8] [µM] | GI50 [2] [µM] | GI50 [5] [µM] | GI50 [6] [µM] | GI50 [9] [µM] | GI50 [10] [µM] |
| --- | --- | --- | --- | --- | --- | --- | --- | --- | --- | --- | --- | --- | --- | --- | --- | --- |
| O=C(Nc1ccccc1)O/N=C(/CBr)c1ccccc1 | > 100 µM | 35.1 | 33.8 | 48 | > 100 | 26.7 | 33.2 | 51.3 | 21.5 | > 100 |  |  |  |  |  |  |
| Cc1ccc([N+](=O)[O-])cc1S(=O)(=O)Nc1ccc(C2=NN(c3ccc([N+](=O)[O-])cc3[N+](=O)[O-])C(c3ccccc3)C2)cc1 (configuration not stated) | > 100 µM | 34.6 | 73.7 | 33.4 | > 100 |  | 40.3 | > 100 | 47.4 | 49.4 |  |  |  |  |  |  |
| C=CC[C@H]1[C@@H](O[Si](C)(C)C(C)(C)C)[C@H](n2ccc(=O)[nH]c2=O)O[C@@H]1CO[Si](C)(C)C(C)(C)C | 3.39 µM | 4.83 | 5.97 | 3.63 | 6.1 | 3.5 | 5.41 | 6.03 | 4.36 | 4.95 |  |  |  |  |  |  |
| CC(C)/C(Cl)=N/OC(=O)Nc1ccc(F)c(Cl)c1 | 3.47 µM | 5.17 | 24.3 | 25.6 | > 100 | 27.3 | 4.13 | 2.97 | 23.4 | 29.3 |  |  |  |  |  |  |
| C=CCC(C)C12CCNC(Cc3ccc(O)cc31)C2C (configuration not stated) | > 100 µM | > 100 | > 100 | > 100 | > 100 | > 100 | > 100 | > 100 | > 100 | > 100 |  |  |  |  |  |  |
| Cc1ccc(C(=O)OC[C@H]2CC[C@@H](n3cc(N(C)C4CCCCC4)c(=O)[nH]c3=O)O2)cc1 | > 100 µM | > 100 | 68.4 | 37.7 | > 100 | 96.2 | 79.3 | 77.9 | > 100 | 56.7 |  |  |  |  |  |  |
| COC(=O)CCC(NC(=O)OC(C)(C)C)C(=O)NC(Cc1ccc([N+](=O)[O-])cc1)C(=O)NCC(=O)OCc1ccccc1 (configuration not stated) (Boc-Glu(OMe)-[Phe(4-NO2)]-Gly-OBn; configuration not given here) | > 100 µM | > 100 | > 100 | > 72.8 | > 100 | > 31.6 | > 100 | > 100 | > 100 | > 100 |  |  |  |  |  |  |
| CC(=O)Oc1ccc(/C=C/C(=O)O[C@@H](C)[C@H](C)OC(=O)/C=C/c2ccc(OC(C)=O)c(OC(C)=O)c2)cc1OC(C)=O | 35.3 µM | 79.7 | > 100 | 44.6 | > 100 | 33.8 | > 100 | 39.1 | > 100 | > 100 |  |  |  |  |  |  |
| CC(C)(CO)CNc1cc(=O)[nH]c(N)n1 | > 100 µM | > 100 | > 100 | > 100 | > 100 | > 100 | > 100 | > 100 | > 100 | > 100 |  |  |  |  |  |  |
| CCN1CC(C)Cn2c(=O)[nH]c3cc(Br)cc1c32 (configuration not stated) | > 100 µM | 52 | > 100 | 37.3 | > 100 | > 100 | > 100 | > 100 | 9.74 | > 100 |  |  |  |  |  |  |
| Cn1ccnc1S/C(=C\C=C(C#N)C#N)c1ccc(Cl)cc1 | 11.9 µM | 13.1 | > 17.9 | 5.4 | 3.41 | 9.36 | 2.09 | 53.6 | 2.45 | 7.85 | 19.2 |  |  |  |  |  |
| NCCC(N)C(=O)O (configuration not stated) | > 100 µM | > 100 | > 100 | > 100 | > 100 | > 100 | > 100 | > 100 | > 100 | > 100 |  |  |  |  |  |  |
| CC(C)C[C@H](NC(=O)[C@H](Cc1cccc2ccccc12)NC(=O)N1CCOCC1)B(O)O | 0.00286 µM and 0.0115 µM | 0.159 | > 100 | 0.00195 |  | 0.00338 | > 100 | 0.00618 | 0.000308 |  | 0.000359 | 0.00928 | 0.00347 | 0.00129 | 0.000136 | 0.267 |
| CN1CC2=C(OC(N)=C(C#N)C2c2cccs2)/C(=C/c2cccs2)C1 (configuration not stated) | > 100 µM | > 60.2 | 39.4 | 48.5 | > 100 | > 100 | 38.7 | > 42.7 | 22.5 | 23.6 |  |  |  |  |  |  |
| Cc1ccc(C)n2c1nc1ccc3ccccc3c12 | > 100 µM | > 100 |  | > 100 | > 100 | > 100 | > 100 | > 100 | > 100 | > 100 |  |  |  |  |  |  |
| COc1ccc(CCn2cnc3ccccc32)cc1 | > 100 µM | > 100 | > 100 | > 100 | > 100 | > 100 | > 100 | > 100 | > 100 | > 100 |  |  |  |  |  |  |
| N=C(N)SCCON1C(=O)c2ccccc2C1=O | > 100 µM | > 100 | > 100 | > 100 | > 100 | > 100 | > 100 | > 100 | > 100 | > 100 |  |  |  |  |  |  |
| OC(C1CCC=NN1C(O)(C(F)(F)F)C(F)(F)F)(C(F)(F)F)C(F)(F)F (configuration not stated) |  | > 10 | > 10 | > 10 | > 10 | > 10 | > 10 | > 10 | > 10 | > 10 |  |  |  |  |  |  |
| CC(C)Oc1c(-c2c(OC(C)C)c(=O)c2=O)c(=O)c1=O | > 62 µM | > 64.9 | > 62.9 | > 78.5 | > 54.7 | > 61.5 | > 100 | > 71.8 | > 41.6 | 26.8 |  |  |  |  |  |  |
| S=C1c2ccccc2NC(=NC2CCCC2)C2CSCN12 (configuration not stated) | > 100 µM | > 100 | > 100 | > 100 | > 100 | > 100 | > 100 | > 100 | > 100 | > 100 |  |  |  |  |  |  |
| CC1=NOC2(C1)/C(=N/O)CCC/C2=N\O (configuration not stated) | > 100 µM | > 100 | > 100 | > 100 | > 100 | > 100 | > 100 | > 100 | > 100 | > 100 |  |  |  |  |  |  |
